Legend:
[1] = xn = mol fraction of the nth substance listed; settings: 101 kPa, Liquid; for mass density: Vibrating tube method
[2] = excess molar enthalpy (molar enthalpy of mixing); xn = mol fraction of the nth substance listed; settings: 308.15 K, 101 kPa, Liquid, 2-drop calorimeter (CSC 4600_

Cc1cccnc1 [3-methylpyridine] + C1CCOCC1
[1]
Settings | mass density, 298.15 K [kg/m3] | mass density, 303.15 K [kg/m3] | mass density, 308.15 K [kg/m3] | speed of sound, 298.15 K [m/s] | speed of sound, 303.15 K [m/s] | speed of sound, 308.15 K [m/s]
x2 = 0 | 952.002 | 947.449 | 942.831 | 1424 | 1404 | 1384
x2 = 0.0562 | 948.099 | 943.521 | 938.854 | 1415.9 | 1395.6 | 1375.6
x2 = 0.0848 | 946.113 | 941.519 | 936.827 | 1411.8 | 1391.4 | 1371.4
x2 = 0.1357 | 942.576 | 937.954 | 933.219 | 1404.5 | 1383.9 | 1363.8
x2 = 0.1826 | 939.306 | 934.651 | 929.891 | 1397.8 | 1377.1 | 1356.8
x2 = 0.2461 | 934.857 | 930.166 | 925.361 | 1388.8 | 1367.8 | 1347.2
x2 = 0.2833 | 932.236 | 927.522 | 922.691 | 1383.3 | 1362.3 | 1341.5
x2 = 0.3345 | 928.61 | 923.861 | 919.004 | 1375.8 | 1354.5 | 1333.6
x2 = 0.3813 | 925.271 | 920.499 | 915.608 | 1368.6 | 1347.3 | 1326.2
x2 = 0.4262 | 922.049 | 917.247 | 912.336 | 1361.8 | 1340.3 | 1319.2
x2 = 0.4827 | 917.964 | 913.129 | 908.186 | 1353 | 1331.2 | 1310.1
x2 = 0.5378 | 913.951 | 909.085 | 904.106 | 1344.3 | 1322.4 | 1301.2
x2 = 0.5924 | 909.933 | 905.038 | 900.027 | 1335.5 | 1313.3 | 1292.3
x2 = 0.6382 | 906.545 | 901.626 | 896.591 | 1328 | 1305.7 | 1284.7
x2 = 0.6982 | 902.068 | 897.114 | 892.051 | 1318.1 | 1295.6 | 1274.7
x2 = 0.7568 | 897.664 | 892.682 | 887.584 | 1308.6 | 1285.8 | 1264.9
x2 = 0.8138 | 893.349 | 888.335 | 883.218 | 1299.2 | 1276.4 | 1255.4
x2 = 0.8825 | 888.124 | 883.068 | 877.926 | 1288.2 | 1265.1 | 1243.9
x2 = 0.9321 | 884.334 | 879.246 | 874.092 | 1280.3 | 1257.2 | 1235.7

[2]
Settings | excess molar enthalpy [kcal/mol]
x2 = 0.0532 | 0.0059
x2 = 0.1118 | 0.0118
x2 = 0.1802 | 0.0181
x2 = 0.2238 | 0.0215
x2 = 0.2732 | 0.0248
x2 = 0.3311 | 0.0277
x2 = 0.3913 | 0.0298
x2 = 0.4461 | 0.0302
x2 = 0.4803 | 0.0304
x2 = 0.5365 | 0.0299
x2 = 0.5868 | 0.0293
x2 = 0.6344 | 0.0276
x2 = 0.6802 | 0.0249
x2 = 0.7355 | 0.0221
x2 = 0.7832 | 0.0184
x2 = 0.8326 | 0.0149
x2 = 0.8914 | 0.00963
x2 = 0.9336 | 0.00607

Cc1ccncc1 [4-methylpyridine] + C1CCOCC1
[1]
Settings | mass density, 298.15 K [kg/m3] | mass density, 303.15 K [kg/m3] | mass density, 308.15 K [kg/m3] | speed of sound, 298.15 K [m/s] | speed of sound, 303.15 K [m/s] | speed of sound, 308.15 K [m/s]
x2 = 0 | 950.179 | 945.413 | 940.821 | 1431.5 | 1410.7 | 1389.9
x2 = 0.0521 | 946.678 | 941.884 | 936.955 | 1422.7 | 1402.2 | 1380.6
x2 = 0.0832 | 944.577 | 939.773 | 935.004 | 1417.5 | 1397.2 | 1376.2
x2 = 0.1426 | 940.548 | 935.733 | 931.541 | 1407.8 | 1387.6 | 1368.4
x2 = 0.1882 | 937.434 | 932.615 | 928.307 | 1400.5 | 1380.3 | 1360.8
x2 = 0.2536 | 932.939 | 928.121 | 923.922 | 1390.1 | 1369.7 | 1350.5
x2 = 0.2902 | 930.406 | 925.591 | 921.331 | 1384.3 | 1363.8 | 1344.4
x2 = 0.3415 | 926.841 | 922.019 | 917.744 | 1376.1 | 1355.3 | 1336
x2 = 0.3782 | 924.275 | 919.451 | 914.432 | 1370.3 | 1349.3 | 1328
x2 = 0.4323 | 920.471 | 915.637 | 911.254 | 1361.6 | 1340.5 | 1320.8
x2 = 0.4913 | 916.295 | 911.443 | 907.207 | 1352.1 | 1330.7 | 1311.3
x2 = 0.5437 | 912.559 | 907.692 | 903.227 | 1343.6 | 1322 | 1302.1
x2 = 0.5991 | 908.587 | 903.687 | 899.247 | 1334.5 | 1312.8 | 1292.8
x2 = 0.6427 | 905.441 | 900.515 | 895.885 | 1327.3 | 1305.5 | 1285.2
x2 = 0.7015 | 901.173 | 896.211 | 891.453 | 1317.7 | 1295.7 | 1275
x2 = 0.7822 | 895.277 | 890.253 | 887.03 | 1304.4 | 1282.3 | 1264.5
x2 = 0.8263 | 892.032 | 886.976 | 882.795 | 1297.2 | 1275 | 1255.2
x2 = 0.8846 | 887.726 | 882.631 | 877.665 | 1287.9 | 1265.5 | 1243.9
x2 = 0.9435 | 883.352 | 878.225 | 873.901 | 1278.6 | 1255.9 | 1235.3

[2]
Settings | excess molar enthalpy [kcal/mol]
x2 = 0.0442 | 0.00296
x2 = 0.1216 | 0.0102
x2 = 0.1982 | 0.0182
x2 = 0.2416 | 0.0233
x2 = 0.2882 | 0.0282
x2 = 0.3401 | 0.0323
x2 = 0.3876 | 0.0366
x2 = 0.4371 | 0.0395
x2 = 0.4834 | 0.0416
x2 = 0.5256 | 0.0419
x2 = 0.5934 | 0.0413
x2 = 0.6433 | 0.039
x2 = 0.6925 | 0.0359
x2 = 0.7367 | 0.0316
x2 = 0.7952 | 0.0256
x2 = 0.8262 | 0.0227
x2 = 0.8842 | 0.015
x2 = 0.9406 | 0.00777

— the NIST ThermoML archive (doi:10.1016/j.tca.2011.02.002)
